{"source": "paper PMC10861593", "about": "“Kisspeptin-10 binding to Gpr54 in osteoclasts prevents bone loss by activating Dusp18-mediated dephosphorylation of Src” (Nature Communications, 2024)", "key": {"[1]": {"test_system": "osteoblast differentiation", "details": "in vitro, KP-10 5 and 50 μM; ref 46 (Son et al.); cited from earlier work", "excerpt": "Typically, GPCR activation with increasing of ligand concentration generates different signalings and phenotypes. […] Furthermore, we foun ..."}, "[2]": {"test_system": "osteoclast formation from BMMs", "test": "TRAP staining of osteoclast formation from BMMs", "type": "cell-based, mouse"}, "[3]": {"test_system": "DUSP18 / GPR54 interaction", "test": "Co-IP: interaction of DUSP18 with GPR54 in transfected 293T cells", "type": "cell-based, human", "details": "293T cells transfected with DUSP18-HA and GPR54-Flag, Kp-10 (10 nM) 20 min", "experimental": "Data represent means ± SEM. P values were determined by one-way ANOVA analysis (b, c, e, g, i, k). Representative results were obtained from at least three independent experiments. Source data are provided as a Source Data file.\n(§1) Whole-cell proteins were extracted using 1x RIPA buffer (25 mM Tris, pH7.5, 150 mM NaCl, 0.5% Sodium deoxycholate, 1% Triton-X-100) supplemented with protease inhibitors (Complete Mini, Roche) and phosphatase inhibitors (phosphatase inhibitor cocktail set I and II, Calbiochem). Immunoprecipitation and immunoblotting with indicated antibodies were performed as described in Supplementary Table 1. Image Jsoftware (V1.52) was used for quantification analysis. Uncropped and unprocessed blots are presented in the Supplementary Information file.\nSupplementary Fig. 6 a, b IB and quantification of protein levels analysis. […] Error bars are ± SEM. P-values were determined by two-tailed Student’s t-test (b, e) or by one-way ANOVA analysis (h, j). *P <0.05, **P <0.01, ***P <0.001, ****P <0.0001. Representative results were observed from at least three independent experiments. Source data are provided as a Source Data file."}, "[4]": {"test_system": "osteoblast differentiation", "test": "osteoblast differentiation", "type": "cell-based, mouse", "experimental": "For osteoblast differentiation analyses in vitro, we isolated bone marrow mesenchymal stem cells (MSCs) from femurs and tibias of 8-week-old WT and Kiss1^−/−, Gpr54^−/− and Dusp18^−/− mice using a 1 ml syringe with a 26 G needle. MSCs were seeded into 12-well plates at a concentration of 1 × 10^5 cells per well. Cells were incubated with 50 µg/mL ascorbic acid, 10 mmol/L beta-glycerophosphate and 10 nmol/L dexamethasone. The medium was replaced every 2 days during the incubation period. Alkaline phosphatase (ALP) activity was assayed using the assay mixtures containing 0.1 M 2-amino-2-methyl-1-propanol, 1 mM MgCl2, 8 mM p-nitrophenylphosphate disodium (Sigma). For determination of mineralization, cells were fixed with 95% ethanol and stained with AgNO3 by the von Kossa method."}, "[5]": {"test_system": "Dusp18 expression", "test": "WB of Dusp18 protein expression in RAW264.7 cells", "type": "cell-based, mouse", "excerpt": "Anti-Flag IP of lysates derived from 293 T cells transfected with GPR54-flag and Src-HA constructs (d) and quantification results (e). Anti-Flag IP of lysates derived from 293 T cells transfected with GPR54-flag and DUSP18-HA constructs (f) and quantification results (g). Anti-Flag IP of lysates derived from 293 T cells transfected with Src-HA, and DUSP18-flag constructs (h) and quantification results (i). j, k IB analysis of lysates derived from WT BMMs and Gq/11 KO BMMs with or without Kp-10 treatment for 1 h (j) and quantification of results (k). l Working model of Kp-10 /Gpr54 mediated Src dephosphorylation. […] However, both active Src and DUSP18 were recruited by GPR54 through the PR motif in GPR54 CT along with the increase of Kp-10 dose (1, 10 nM). […] Data represent means ± SEM. P values were determined by one-way ANOVA analysis (b, c, e, g, i, k). Representative results were obtained from at least three independent experiments. Source data are provided as a Source Data file.\nas §1\nSupplementary Fig. 7 a-b IB and quantification of Dusp18 protein level induced by indicated dose of Kp-10 for 1 hour in RAW264.7 cells (a) and quantification of protein levels (b) or induced by Kp-10 (1nM) for 1 hour in RAW264.7 transfected with ERK1/2 siRNA. Error bars are ± SEM. P-values were determined by one-way ANOVA analysis (b). ****P <0.0001. “ns” means no significant difference. Representative results were observed from at least three independent experiments. Source data are provided as a Source Data file."}, "[6]": {"test_system": "osteoclast bone resorption", "test": "pit assay (bone resorption)", "type": "cell-based, mouse", "details": "for bone resorption: dentin slices, 5–7 days"}}, "note": "Entries after “also recorded” stand apart in the source; their conditions may differ.", "data": [{"substance": "Kisspeptin-10 [Kp-10]", "values": [{"measurement": "osteoblast differentiation at 5 and 50 μM", "setting": "[1]", "result": "stimulated osteoblast differentiation in vitro"}, {"measurement": "osteoclast formation", "setting": "[2]; Arrb1 knockout BMMs", "result": "still suppressed by Kp-10; also recorded: still blocked osteoclast formation"}, {"measurement": "osteoclast formation", "setting": "[2]; Arrb2 knockout BMMs", "result": "still suppressed by Kp-10; also recorded: still blocked osteoclast formation"}, {"measurement": "interaction of DUSP18 with GPR54", "setting": "[3]", "result": "dose-dependently induced the interaction"}, {"measurement": "osteoblast differentiation, low dose", "setting": "[4]; Kp-10 0.01 nM and 0.1 nM", "result": "effectively suppressed osteoblast differentiation"}, {"measurement": "osteoblast differentiation", "setting": "[4]; upon Kp-10 stimulation, ALP and von Kossa staining", "result": "dose-dependently suppressed"}, {"measurement": "protein level of Dusp18 upon ERK1/2 siRNA", "setting": "[5]; RAW264.7, ERK1/2 siRNA, Kp-10 (1 nM) 1 h", "result": "cannot be obviously up-regulated"}, {"measurement": "expression of Dusp18 (protein), 10 nM", "setting": "[5]; RAW264.7, Kp-10 10 nM for 1 h", "result": "not by 10 nM Kp-10"}, {"measurement": "expression of Dusp18 (protein), 0.1 and 1 nM", "setting": "[5]; RAW264.7, Kp-10 0.1, 1 nM for 1 h", "result": "obviously upregulated the expression of Dusp18; also recorded: induced the expression of Dusp18 obviously"}, {"measurement": "bone resorption (pit formation, pit depth)", "setting": "[6]; Dusp18 WT osteoclasts", "result": "bone resorption was suppressed"}, {"measurement": "bone resorption", "setting": "[6]; Gpr54-WT osteoclasts", "result": "suppressed bone resorption"}, {"measurement": "bone resorption", "setting": "[6]; Gpr54 knockout osteoclasts", "result": "did not have a significant effect"}]}]}
